Test results taken from patent publication US20060166907A1, “Composition for the treatment of nasopharyngeal carcinoma and method of use thereof” (priority 2002, published 2006).
Like-named read-outs stand apart in the source and are kept apart here.

Key:
C666-1 cells = assay: WST-1 cell viability assay, C666-1 cells; settings: for IC50: read-out: IC 50, NPC cell viability, C666-1 Cells
Protocol: Cell viability assays were performed in 96 well plastic microplates, either uncoated (C666-1) or coated with Poly HEMA (C15). For each cell line, the number of cells distributed per well was optimized in order to achieve the highest metabolic activity while keeping exponential growth till the end of the test. C15 and C666-1 cells were seeded at 10^5 and 35×10^3/well, respectively, in 150 μl culture medium. Following an overnight pre-incubation culture, serial dilutions of chemotherapy drugs (50 μl; final concentration 50 nM-50 μM) were added in quadruplicate to a […]. At the completion of a 72 h incubation with tested pharmacological agents, cell viability was evaluated using the WST-1 assay (Roche Molecular, France). The WST-1 assay is based on the cleavage of the tetrazolium salt by mitochondrial dehydrogenases. […] Cells were incubated with 10 μl of the WST-1 reagent added to the culture medium, for 3 to 6 h, at 37° C. The plates were subsequently read on an ELISA reader (Dynatech MR7000, Guernsey channel Island, USA) using a 490 nm filter. The mean and standard deviation were determined for quadruplicate samples. For each compound, values falling in the linear part of sigmoid curve were included in a linear regression analysis and were used to estimate the 50% inhibitory concentration (IC 50). Measurement of caspase activity in drug treated NPC cells.
(Ali, H. et al., Chemotherapy in advanced nasopharyngeal cancer. Oncology (Huntingt), 14:1223-1230, 2000.) Their short term cytotoxic effect was assessed in vitro on the C15 and C666-1 cells, using a cell viability assay based on WST reduction. Cultured cells were incubated in the presence of various concentrations of each therapeutic agent for 72 hours.

C15 cells [1] = settings: for IC50: read-out: IC 50, NPC cell viability, C15 Cells, 72 h incubation, WST-1, PolyHEMA-coated plates
[2] = biological target: T1, GGTase I from human brain (Homo sapiens, UniProt P49354+P53609); assay: In vitro GGTase I assay ([3H]-geranylgeranylation of H-Ras CVLL); type: biochemical; settings: read-out: Enzyme assays IC50 GGTase I
T1 construct: GGTase I from human brain; purchased ABS reagent; host or cells: human brain (tissue-derived, not recombinant)
Protocol: (§1) The effect of Compound A and other drugs on FTase activity was assayed in vitro with FTase from human brain cytosol (ABS Reagents, Wilmington, Del.) as target enzyme and recombinant human H-Ras protein containing the wild type CAAX box (Biomol, Plymouth Meeting, Pa.) as a specific substrate. The incubation mixture (25 μl) for [^3H]-farnesylation contained 50 mM Tris-HCl (pH 7.5), 5 mM dithiothreitol, 20 μM ZnCl2, 40 mM MgCl2, 0.6 μM [^3H]-farnesyl pyrophosphate (22.3 Ci/mmol) (NEN, Boston, Mass.), 4 μM recombinant H-Ras and 10 μg FTase. After 60 min at 37° C., the reaction was stopped by adding 150 μl of absolute ethanol. The mixture was then filtered on Unifilter GF/B microplate (Packard, Rungis, France) and washed 6 times with ethanol prior to scintillation counting. After adding 50 μl of Microscint 0, plates were counted with a Packard Top Count scintillation counter. Drug effects on GGTase I activity were assayed by a similar method with GGTase I from human brain (ABS reagent) as target enzyme and human recombinant H-Ras containing a mutated CAAX box (CVLL)(Biomol). The incubation mixture contained 4 μM recombinant H-Ras, 0.6 μM [^3H]-geranylgeranyl-pyrophosphate (19.3 Ci/mmol) (NEN) and 100 μg of GGTase I. GGTI-286 was used as a positive control for the GGTase-I inhibition assay. Results were expressed as the concentrations of drugs required to inhibit 50% of prenyl-incorporation into the recombinant H-Ras proteins (IC50). Assessment of farnesyl-transferase inhibition in intact cells.

[3] = biological target: T2, FTase from human brain cytosol (Homo sapiens, UniProt P49354+P49356); assay: In vitro FTase assay ([3H]-farnesylation of H-Ras); type: biochemical; settings: mean of 2 experiments (lowest-highest); read-out: Enzyme assays IC50 FTase
T2 construct: FTase from human brain cytosol; purchased ABS Reagents, Wilmington, Del; host or cells: human brain cytosol (tissue-derived, not recombinant)
Protocol: as §1

[4] = system: TWO1 and TWO39 NPC cell lines; settings: TWO1 and TWO39, EBV-negative lines; cited from earlier work
C15 cells [5] = assay: cells; settings: Homo sapiens, 72 h, read-out: IC 50, NPC cell viability, C15 Cells
C15 cells [6] = assay: Nuclear morphology, Hoechst 33342 staining, C15 cells; type: cell-based, human; settings: 48 h to 72 h, doxorubicin 1 μM, Compound A 5 μM
Description: FIG. 3. […] A: non-treated cells.

C15 cells [7] = assay: PARP cleavage Western blot, C15 cells; type: cell-based, human; settings: doxorubicin 1 μM, Compound A 5 μM, combination at 24 h
Protocol: FIG. 5. […] Corresponding cell lysates (50 μg protein per lane) were separated by 7.5% SDS-PAGE and analyzed by Western Blot with an anti-PARP monoclonal antibody. The cleaved product of PARP was at 85 kD, as shown in the positive-control extract derived from C15 cells treated with the CD95 agonist-antibody 7C11.

C15 cells [8] = assay: TRAF1 cleavage Western blot, C15 cells; type: cell-based, human; settings: 24 h, doxorubicin 1 μM, Compound A 5 μM
Protocol: FIG. 6. Induction of TRAF1-cleavage in C15 cells treated with doxorubicin combined to Compound A. A: Diagram of Fas-mediated TRAF-1-cleavage as reported by Leo et al. (2001). The locations of target peptides used for production of the H-3 monoclonal and H-132 polyclonal antibody are indicated by hatched boxes. The peptide targeted by H-3 was entirely contained in fragment II whereas the peptide targeted by H132 was mainly co-linear with fragment I. B: C15 cells were treated for 24 h with doxorubicin (1 μM), Compound A […] or a combination of both. Control cells were treated with the Fas-agonist antibody 7C11. Cell lysates (50 μg protein per lane) were separated on a 8-16% SDS-PAGE linear gradient prior to Western Blot analysis with anti-TRAF-1 antibodies. Both antibodies detected a main band at 46 kd Additional bands corresponding to fragments of smaller sizes were visible, mainly in samples treated with 7C11 or the combination of doxorubicin and Compound A. In the extracts of cells treated with 7C11, these smaller fragments had apparent molecular weights of 29 kD (H-3) and 24 kD (H-132) which were compatible with the sizes of TRAF1 fragments reported by Leo et al. (2001). Similar results were obtained in three similar experiments.

[9] = system: farnesyl-transferase in intact MIAPaca cells; assay: Farnesyl-transferase inhibition in intact cells (H-Ras and N-Ras Western blot); type: cell-based, human; settings: 48 h
Protocol: The effect of Compound A on farnesyl-transferase in intact cells was assayed in MIAPaca cells, a human pancreatic carcinoma cell line which was purchased from the ATCC. Both H-Ras and N-Ras were investigated as reference substrates of the endogenous farnesyl-transferase. Total protein extracts were prepared from MIAPaca cells treated for 48 h with increasing concentrations of Compound A (1-100 nM) along with extracts from untreated cells as a negative control. A positive control was provided by cells treated with mevastatine (30 μM). Mevastatine is an HMG-CoA reductase inhibitor which blocks the synthesis of farnesyl metabolic precursors. Cell extracts were separated by SDS-polyacrylamide gels (15%) and analyzed by Western blot with polyclonal antibodies directed to H-Ras and N-Ras (Santa Cruz, Heidelberg, Germany). Farnesyl-transferase inhibition was assessed indirectly by detection of non-prenylated forms of H-Ras and N-Ras which were slightly shifted toward higher molecular weights and reacted more efficiently with antibodies. Assessment of drug effect on NPC cell viability.

CNE1 NPC cell line = settings: CNE1, EBV-negative line; cited from earlier work
[10] = mean of 2 experiments (lowest-highest)

O=c1[nH]cc(F)c(=O)[nH]1 [5-fluorouracyl]
sensitivity to short term cytotoxic effect (C666-1 cells): No significant effects
IC50 (C666-1 cells; 72 h incubation, WST-1): ≥ 5 µM
sensitivity to short term cytotoxic effect (C15 cells [1]): No significant effects
IC50 (C15 cells [1]): ≥ 5 µM

CC[C@H](C)[C@@H](CN1CSC(C)(C)[C@H]1C(=O)N[C@@H](CCSC)C(=O)OC)NC[C@@H](N)CS [BIM-46068]
IC50 [2, 10]: 268 µM
IC50 [3]: 0.091 µM

COC(=O)[C@H](CCSC)NC(=O)c1ccc(NC[C@@H](N)CS)cc1-c1ccccc1 [FTI-277]
IC50 [2, 10]: 0.314 µM
IC50 [3]: 0.03 µM

CC(=O)O[C@H]1C(=O)[C@@]2(C)[C@H]([C@H](OC(=O)c3ccccc3)[C@]3(O)C[C@H](OC(=O)[C@H](O)[C@@H](NC(=O)c4ccccc4)c4ccccc4)C(C)=C1C3(C)C)[C@]1(OC(C)=O)CO[C@@H]1C[C@@H]2O [Taxol]
effect on NPC cell lines [4]: induce growth arrest and/or apoptosis
sensitivity to short term cytotoxic effect (C666-1 cells): highly sensitive
IC50 (C666-1 cells; Homo sapiens, C6661, 72 h): 0.2 µM
IC50 (C15 cells [5]): ≥ 25 µM
sensitivity to short term cytotoxic effect (C15 cells [1]): totally resistant

COC(=O)[C@H](CC(C)C)NC(=O)c1ccc(NC[C@@H](N)CS)cc1-c1ccccc1 [GGTI-286]
IC50 [2, 10]: 0.114 µM
IC50 [3]: 0.365 µM

COc1cccc2c1C(=O)c1c(O)c3c(c(O)c1C2=O)C[C@@](O)(C(=O)CO)C[C@@H]3O[C@H]1C[C@H](N)[C@H](O)[C@H](C)O1 [Doxorubicin, doxorubicin]
nuclear apoptosis morphological changes (C15 cells [6]): much less apparent
PARP cleavage (C15 cells [7]): Moderate PARP cleavage
IC50 (C666-1 cells; Homo sapiens, C6661, 72 h): 0.2 µM
TRAF1 cleavage (C15 cells [8]): no modifications
IC50 (C15 cells [5]): 0.15 µM

COc1cc(Cn2cncc2CC(=O)N2Cc3nc(-c4ccccc4Br)cn3Cc3c(F)cccc32)ccc1C#N [Compound A]
concentration giving significant inhibition of H-Ras and N-Ras farnesylation [9]: 50 nM
nuclear apoptosis morphological changes (C15 cells [6]): much less apparent
PARP cleavage (C15 cells [7]): Moderate PARP cleavage
IC50 (C666-1 cells; Homo sapiens, C6661, 72 h): 10 µM
IC50 [2]: > 100 µM
TRAF1 cleavage (C15 cells [8]): no modifications
IC50 [3]: 0.015 µM
IC50 (C15 cells [5]): 10 µM

N.N.[Cl][Pt][Cl] [Cis-platinum, cis-platin]
IC50 (C666-1 cells; 72 h incubation, WST-1): 5 µM
concentration inducing growth arrest (CNE1 NPC cell line): about 1 μM
enhancement of cytotoxicity by combination with Compound A (C15 cells [1]): not observed
IC50 (C15 cells [1]): 1 µM
